According to US7183306B2, “Pyrazole derivatives” (Astellas Pharma Inc., priority 2002, dated 2007):

test system: arthritic rats (adjuvant arthritis); test: Analgesic activity: effect on adjuvant arthritis in rats (Randall-Selitto pain threshold); format: in vivo, Lewis rats; conditions: Rattus norvegicus, single dose, pain threshold of left hind paw 2 hrs after administration, threshold pressure of treated vs non-treated rats, ratio of 1.5 considered effective, read-out: The coefficient of analgesic

| SMILES | response vs control in vivo at 3.2 mg/kg [%] |
| --- | --- |
| COc1ccc(-n2nc(C(F)(F)F)cc2-c2ccc(OCCN)cc2)cc1 [Example 267] | ≥ 150 |

test system: not given; test: not given; conditions: not given

| melting point [°C] | SMILES |
| --- | --- |
| 184.7 to 185.1 | CCN(C)C(=O)c1cc(-c2ccc(CNC(N)=O)cc2)n(-c2ccc(OC)cc2)n1 |
| 130 to 131 | COc1ccc(-n2nc(OCC(F)(F)F)cc2-c2ccc(CNS(C)(=O)=O)cc2)cn1 |
| 154.2 to 154.4 | CCOc1cc(-c2ccc(OCCNC(N)=O)cc2)n(-c2ccc(OC)cc2)n1 |
| 128 to 128.1 | COCOc1ccc(-c2cc(S(C)(=O)=O)nn2-c2ccc(OC)cc2)cc1 |
| 149 | CNC(=O)NCCc1ccc(-c2cc(C(F)(F)F)nn2-c2ccc(OC)nc2)cc1 |
| 136 to 137 | COc1ccc(-n2nc(C(=O)C3CC3)cc2-c2ccc(OCCNC(N)=O)cc2)cc1 |
| 100 to 104 | COc1ccc(-n2nc(C(C)C)cc2-c2ccc(OCCNC(N)=O)cc2)cc1 |
| 95 to 96 | COc1ccc(-n2nc(C(=O)C(C)C)cc2-c2ccc(OCCO)cc2)cc1 |
| 184.3 to 184.7 | CSc1ccc(-n2nc(C(F)F)cc2-c2ccc(OCCNC(N)=O)cc2)cc1 |
| 158 to 159 | COc1ccc(-n2nc(-c3nc(C)no3)cc2-c2ccc(OCCO)cc2)cc1 |
| 165 to 167 | COc1ccc(-n2nc(S(C)(=O)=O)cc2-c2ccc(OCCNC(N)=O)cc2)cc1 |
| 150.5 to 151.1 | COc1ccc(-n2nc(C(F)(F)F)c(C)c2-c2ccc(OCCNC(N)=O)cc2)cc1 |
| 79 to 80 | COc1ccc(-n2nc(C(F)(F)F)cc2-c2ccc(CCNC(C)=O)cc2)cc1 |
| 111 to 112 | COc1ccc(-n2nc(C3CC3)cc2-c2ccc(CCO)cc2)cc1 |
| 206 to 260.9 | COc1ccc(-n2nc(OC)cc2-c2ccc(CNC(N)=O)cc2)cc1 |
| 158.6 to 159 | COc1ccc(-n2nc(N(C)C(=O)N(C)C)cc2-c2ccc(OCCNC(N)=O)cc2)cc1 |
| 141.6 to 142.3 | COc1ccc(-n2nc(OC)cc2-c2ccc(OCCNC(N)=S)cc2)cc1 |
| 141.2 to 142.2 | COc1ccc(-n2nc(SC)cc2-c2ccc(OCCNC(N)=O)cc2)cc1 |
| 105 to 107 | COc1ccc(-n2nc(C#N)cc2-c2ccc(OCCO)cc2)cn1 |
| 147 to 149 | COc1ccc(-n2nc(C(F)(F)F)cc2-c2ccc(CNC(N)=O)cc2)cn1 |
| 169 to 170 | COc1ccc(-n2nc(C(F)(F)F)cc2-c2ccc(CCOC(N)=O)cc2)cc1 |
| 187 to 190 | COc1ccc(-n2nc(C#N)cc2-c2ccc(OCCNC(N)=O)cc2)cc1 |
| 67.7 to 69.2 | CCOc1cc(-c2ccc(OCCO)cc2)n(-c2ccc(OC)cc2)n1 |
| 149 to 153 | COc1ccc(-n2nc(C#N)cc2-c2ccc(OCCNS(C)(=O)=O)cc2)cc1 |
| 106.6 to 107.1 | COc1ccc(-n2nc(OCC(=O)N(C)C)cc2-c2ccc(OCCO)cc2)cc1 |
| 108 to 113 | CCN(C)C(=O)c1cc(-c2ccc(OCCNC(N)=O)cc2)n(-c2ccc(OC)cc2)n1 |
| 97 to 98 | COc1ccc(-n2nc(C(F)(F)C(F)(F)F)cc2-c2ccc(CCO)cc2)cc1 |

Further lines, the compound ahead of its results:

| SMILES | melting point [°C] |
| --- | --- |
| COc1ccc(-n2nc(C(=O)C(C)C)cc2-c2ccc(OCCN)cc2)cn1.Cl.Cl | 156 to 161 |
| COc1ccc(-n2nc(OCC(C)C)cc2-c2ccc(OCCNS(C)(=O)=O)cc2)cc1 | 164.3 to 165.2 |
| C=C(C)c1cc(-c2ccc(OCCNS(C)(=O)=O)cc2)n(-c2ccc(OC)nc2)n1 | 96 to 99 |
| COc1ccc(-n2nc(C(=O)C3CC3)cc2-c2ccc(OCCO)cc2)cn1 | 104 to 106 |
| CCOc1cc(-c2ccc(OCCNC(N)=O)cc2)n(-c2ccc(OC)nc2)n1 | 133 to 138 |
| COc1ccc(-n2nc(C(=O)N3CCCCC3)cc2-c2ccc(OCCNS(C)(=O)=O)cc2)cn1 | 158.8 to 159.1 |
| COc1ccc(-n2nc(C3CC3)cc2-c2ccc(OCCNC(N)=O)cc2)cn1 | 94 to 96 |
| COc1ccc(-n2nc(C(=O)N3CCCCC3)cc2-c2ccc(OCCNC(N)=O)cc2)cc1 | 152 to 152.2 |
| CCOc1cc(-c2ccc(OCCNS(C)(=O)=O)cc2)n(-c2ccc(OC)nc2)n1 | 122 to 122.6 |
| CCN(C)C(=O)c1cc(-c2ccc(OCCNC(N)=O)cc2)n(-c2ccc(OC)nc2)n1 | 146.3 to 146.7 |
| COc1ccc(-n2nc(C#N)cc2-c2ccc(OCCNC(N)=O)cc2)cn1 | 173 to 176 |
| COc1ccc(-n2nc(C(C)C)cc2-c2ccc(OCCNS(C)(=O)=O)cc2)cn1 | 96 to 97 |
| COc1ccc(-n2nc(C(=O)C(C)C)cc2-c2ccc(OCCNC(N)=O)cc2)cn1 | 145 to 147 |
| COc1ccc(-n2nc(OCC(=O)N(C)C)cc2-c2ccc(OCCNC(N)=O)cc2)cc1 | 223 to 227 |
| CCOCCOc1cc(-c2ccc(OCCNS(C)(=O)=O)cc2)n(-c2ccc(OC)cc2)n1 | 116.3 to 116.4 |
| COc1ccc(-n2nc(NC(=O)N(C)C)cc2-c2ccc(OCCNC(N)=O)cc2)cc1 | 193 to 196 |
| COc1ccc(-n2nc(OC)cc2-c2ccc(OCCNS(C)(=O)=O)cc2)cn1 | 116 to 117.5 |
| COc1ccc(-n2nc(C3CC3)cc2-c2ccc(OCCNS(C)(=O)=O)cc2)cn1 | 95 to 97 |
| COc1ccc(-n2nc(C(F)F)cc2-c2ccc(OCCNC(N)=O)cc2)cn1 [241] | 139 to 140 |
